Consider 4 compounds from patent publication US6376175B1, “Methods of discovering chemicals capable of functioning as gene expression modulators” (OSI Pharmaceuticals, Inc., priority 1989, dated 2002).

One series concerns human G-CSF promoter. The series is classed as cell-based. As to conditions: G21 cells, 6 hours, high-throughput screen; for GCSF fold inhibition relative to solvent control: Table 2 B) transcriptional inhibitors. From the text:
A human bladder carcinoma cell line (U5637, ATCC number HTB 9) was used for transfection of plasmids containing the human Granulocyte-Colony Stimulating Factor (G-CSF) promoter (see below) and was maintained in RPMI medium supplemented with 10% FCS. For HTP screening, transfected 5637 clones were transferred to a serum free defined medium identical to that used for the NIH/3T3 clones.
The sequences of OL-1, OL-2 and OL-5 recognize the G-CSF promoter region, OL-4 recognizes the first intron/exon junction and OL-3 recognizes sequences within the second exon (32). One of the clones isolated from the leukocyte library using these oligonucleotide probes contains a 3.5 kb SalI-BamHI fragment of G-CSF genomic sequence consisting of 3.3 kb of promoter sequence and two hundred base pairs of the coding region. This fragment was inserted into the vector pGEM-7-Zf (Promega, Madison, Wis.) which had previously been digested with SalI/BamHI, resulting in the vector pJM710 (FIG. 7). pJM710 was then digested with PstI, and the resulting 1.6 kb fragment containing G-CSF upstream sequences and the first 15 bases of the G-CSF leader sequence was inserted into the PstI site of pGEM5-Luci (FIG. 8) to generate pG-Lucl (FIG. 9). This construct was then used for transfection of 5637 human bladder carcinoma cells as described below in section E3. pGEM5-Luci (FIG. 8) had previously been constructed by inserting the […]/SalI fragment from pSVLuci (FIG. 2) containing the luciferase coding sequence and the SV40 late polyadenylation signal into pGEM 5-Zf (Promega, Madison Wis.) digested with XhoI/SalI.
pG-LUC1 (FIG. 9) and pRSVNeo were co-transfected into 5637 human bladder carcinoma cells as described above. Selection of G418 resistant clones was as described above except for using a concentration of 0.1 mg/ml G418. Analysis of cell clones was performed as above except that a known inducer of G-CSF expression (1-5 µg/ml lipopolysaccharide (LPS), E. coli serotype 055:b5, Difco, Detroit, Mich. or Sigma, St. Louis, Mo.) was used in place of dexamethasone.
(§1) Cell plating: Dynatech Microlite 96 well plates were custom pretreated for cell attachment by Dynatech Laboratories, Inc. (Chantilly, Va.). Alternatively, the 96 well plates were treated with 50 µl per well of human fibronectin (hFN, 15 µg/ml in PBS, Collaborative Research, Bedford, Mass.) overnight at 37 C. hFN-treated plates were washed with PBS using an Ultrawash 2 Microplate Washer (Dynatech Labs), to remove excess hFN prior to cell plating. M10, 532, and G21 cells maintained in their respective serum media (with 0.2 mg/ml G418) were washed with PBS, harvested by trypsinization, and counted using a hemocytometer and the Trypan Blue exclusion method according to protocols provided by Sigma, St. Louis, Mo. Chemical Company. Cells were then diluted into serum free defined media (with 0.2 mg/ml G418), and 0.2 ml of cell suspension per well was plated onto Dynatech treated plates (532 and G21) or hFN-treated plates (M10) using a Cetus Pro/Pette (Cetus, Emeryville Calif.). Plates were incubated overnight at 37 C in a humidified 5% CO2 atmosphere.
(§2) Addition of Chemicals to Cells: Chemicals from the Oncogene Science file were dissolved in DMSO at concentrations of 3-30 mg/ml. A liquid handling laboratory work station (RSP 5052, Tecan U.S. Chapel Hill, N.C.) was used to dilute the chemicals (three dilutions; 5 fold, 110 fold, and 726 fold). 10 11 of each dilution were added to each of quadruplicate samples of cells contained in the wells of 96-well Dyantech Microlite Plates. […]

In series [1] the test system is mouse mammary tumor virus (MMTV) promoter. The series is classed as cell-based. The conditions noted are these: M10 cells, 6 hours, high-throughput screen; for MMTV fold inhibition relative to solvent control: Table 2 B) transcriptional inhibitors.
Excerpt: NIH/3T3 fibroblast cells (ATCC number CRL 1658) were used for transfection of plasmids containing the mouse mammary tumor virus (MMTV) promoter linked to firefly luciferase coding sequences (see below). Cells were propagated in Dulbecco's modified Eagle's medium (DMEM) obtained from Gibco, Grand Island, N.Y. and supplemented with 10% FCS. For high-throughput (HTP) screening, transfected NIH/3T3 clones were transferred to serum free defined medium consisting of Iscove's modified Eagle's medium (IMEM) and Ham's F12 medium (1:1) supplemented with growth factors, hormones and nutrients as described previously (43).
The firefly luciferase gene was removed from the plant expression plasmid pDO432 (33) (FIG. 1) as a 1.9 kb BamHI fragment and cloned into the BamHI site of pSVL (Pharmacia, Piscataway, N.J.), a mammalian expression vector containing the SV40 promoter. The resulting plasmid (pSVLuci; FIG. 2) was digested with XhoI and SalI to produce a 2.4 kb fragment containing the luciferase coding sequences and the SV40 late polyadenylation site. This fragment was inserted into the XhoI site of pMSG (Pharmacia, Piscataway, N.J.), a eukaryotic expression vector containing the MMTV promoter. The resulting MMTV promoter-luciferase fusion plasmid (pMLuci; FIG. 3) was used to transfect NIH/3T3 cells as described below (section E1). Similar constructs can be made using luciferase vectors from Clontech (Palo Alto, Calif.).
pMluci (FIG. 3) and pSV2Neo, an antibiotic resistance plasmid (34), were co-transfected into NIH/3T3 mouse fibroblast cells using the calcium phosphate precipitation method (15) with a commercially available kit (Pharmacia, Piscataway N.J.). Two days later, cells were transferred to media containing 0.4 mg/ml G418 and were grown for an additional 10-14 days. G418-resistant clones were isolated by standard methods. Once sufficient cell numbers were obtained, clones were analyzed based on several criteria: constitutive luciferase production, induction of luciferase expression by dexamethasone (1 μm, Sigma, St. Louis, Mo.), satisfactory attachment to microtiter plates used in the high-throughput screen (see Section G) and acceptable standard deviation in multiple luciferase expression assays (see below for assay protocol). This analysis was carried out using the luciferase assay conditions described in sections F and G. Of the clones which satisfied the above criteria for the high throuphput screen, one clone, M10, was selected for use.
as §1, §2

Series [2] relates to human growth hormone promoter. The series is classed as cell-based. The conditions noted are these: 532 cells, 6 hours, high-throughput screen; for hGH fold inhibition relative to solvent control: Table 2 B) transcriptional inhibitors.
Excerpt: A rat pituitary cell line, designated GC, (4, 25) was used for transfection of plasmids containing the human growth hormone promoter (see below) and was maintained in DMEM and Ham's F12 medium (1:1), supplemented with 12.5% FCS. For HTP screening, transfected GC clones were transferred to serum free defined medium consisting of DMEM and Ham's F12 medium (1:1) supplemented with growth factors, hormones and nutrients as described previously (17, 5).
The SalI-XhoI fragment of pSVLuci (FIG. 2) containing the luciferase coding sequences and the SV40 late polyadenylation site was inserted into pUC 8 (Biorad, Richmond, Calif.), which has been linearized by a SmaI/HinCII digestion and ligated to XhoI linkers (New England Biolabs, Beverly, Mass.). The new plasmid thus generated (pUXLuci; FIG. 4) was linearized by XhoI digestion followed by incubation with the Klenow fragment of E. coli DNA polymerase and the four deoxyribonucleotides to fill in the single-stranded ends of the vector. This linear (5.1 KB) form of pUXLuci was then ligated to the filled-in 550 bP HindIII-XbaI fragment of the plasmid phGH:CAT (FIG. 5) (25). Human growth hormone promoter sequences located on the HindIII-XbaI fragment were thus fused to the luciferase coding sequences located on pUXLuci generating the plasmid phGH-Luci (FIG. 6), which was used in transfections of GC cells as described below (Section E2).
phGH-LUCI (FIG. 6) and pRSVNeo, an antibiotic resistance plasmid (14), were co-transfected into GC rat pituitary cells as described above. Selection of G418-resistant cell clones was described above except for using a concentration of 0.2 mg/ml G418. Analysis of the cell clones was performed as above, except that known inducers of hGH expression (10-100 nM rat growth hormone releasing factor (rGRF, Bachem, Torrance, Calif.) and 10 μm forskolin (Sigma, St. Louis, Mo.) were used in place of dexamethasone. One clone, 532, was selected for further use in the high throughput screen.
as §1
Addition of Chemicals to Cells: Chemicals from the Oncogene Science file were dissolved in DMSO at concentrations of 3-30 mg/ml. A liquid handling laboratory work station (RSP 5052, Tecan U.S. Chapel Hill, N.C.) was used to dilute the chemicals (three dilutions; 5 fold, 110 fold, and 726 fold). 10 11 of each dilution were added to each of quadruplicate samples of cells contained in the wells of 96-well Dyantech Microlite Plates. Cell plates were then shaken on a microplate shaker (Dyantech, medium setting, 30 sec.) and incubated for 6 hours at 37 C, 5% CO2.
Bioluminescence Assay: After incubation with OSI-file chemicals, cell plates were washed 3 times with PBS using an Ultrawash 2 Microplate Washer (Dyantech Labs) and 75 µl of Lysis Buffer 2 were added to each well (Lysis Buffer 2 is the same as Lysis buffer 1 exept that the ATP and DTT concentrations were changed to 2.67 mM and 133 mM, respectively). […]

The subject of the next series is G-CSF promoter. Kind of series: G-CSF promoter-luciferase induction by known inducers, clone G 1002 (5637 cells). The series is classed as cell-based, human. The conditions noted are these: 10.5 hours, serum-containing media; 8.3 ng/ml TNF-alpha, 20 ng/ml PMA, 0.5 ng/ml Interleukin-1 beta, or mixtures as labelled. From the text: Cloning of G-CSF sequences is described in Experimental Details, section B-3. In order to correctly fuse the G-CSF upstream sequences to the luciferase start codon, oligonucleotides were synthesized which contain the G-CSF leader sequence from +15 to the ATG (32), and were cloned into pUC19 to create pGUC84 (FIG. 29). […] The G-CSF-oligonucleotide-containing NcoI/ScaI fragment from pGUC84 was then isolated and ligated to the luciferase-containing NcoI/ScaI fragment from pUV100 to create pGUV100 (FIG. 30). Following this, the PstI fragment of the G-CSF promoter was isolated form pJM710 (FIG. 7) and inserted into the PstI site in pGUV100 generating pGUV1(FIG. 31). The rest of the G-CSF promoter clone was added by ligating the G-CSF-luciferase containing SfiI/ScaI fragment from pGUV1 to the appropriate SfiI/ScaI fragment from pJM710, creating the plasmid pGUV2 (FIG. 32). The XbaI fragment from pGUV2 containing the G-CSF-luciferase fusion was then cloned into pUV103 previously digested with XbaI/SpeI, generating pGUV140 (FIG. 33). Finally, a TK-Neo cassette (Section C) was included by ligating the ScaI/XbaI fragment from pGUV140 which contains the G-CSF-luciferase fusion into pTKNEO103 previously digested with ScaI/XbaI, yielding the final vector pGUV150 (FIG. 34).
All the following constructs were transfected into 5637 bladder carcinoma cells either by electroporation using a BRL (Gaithersburg, Md.) Cellporator electroporation device or by lipofection using BRL lipofectin and following the manufacturer's protocol. For electroporation, cells were trypsinized, treated with Soybean trypsin inhibitor (1 mg/ml), washed three times in Dulbecco's modified Eagle's medium (DMEM) without pH indicator, and 1 ml of cell suspension in DMEM was electroporated at room temperature and at a cell density of 5 million cells per ml at a voltage of 250 V and a capacitance of 1180 microFarad with the electroporation device set at low resistance. In previous experiments these parameters had been determined to result in optimal electroporation efficiency. About 15 min after electroporation cells were recovered from the disposable electroporation containers (BRL, Gaithersburg, Md.) and plated in RPMI containing 10% fetal calf serum. 2 days after electroporation 0.4 mg/ml G 418 were added and clonal cell colonies were picked 14-20 days after transfection. Clones were first analysed for luciferase expression using Lysis Buffer 1 without bovine serum albumin (see Section F) and those testing positive expanded further and frozen in liquid nitrogen. Further analysis of 6 clones (G 1002, G 2005, G 2071, G 2085, G 3014, G3031) included Southern blotting, reaction to known inducers, satisfactory attachment to microtiter plates and acceptable standard deviation in multiple luciferase expression assays. Clones G 2005 and G 2085 were derived from 5637 cells lipofected with 100 ug/ml of linearized pGVU150 (FIG. 34), G 3031 descends from cells electroporated with 100 ug/ml of linearized pGVU150, whereas 200 ug/ml of the same plasmid were used to generate G 3014. Cotransfection of circular pGVU140 (FIG. 33) with circular pTKNeo3 (FIG. 19) was used to generate clones G 1002 and G 2071. While G 1002 resulted from co-electroporation of 50 and 5 ug/ml of the two plasmids, G 2071 descends from cells lipofected with 100 and 10 ug.
Cell clones with correctly integrated promoter/reporter constructs were analysed for correct reaction to known transcriptional inducers. […] Both TNF-alpha- and PMA-induction levels of clone G 1002 were influenced by the presence or absence of epidermal growth factor (EGF). […] The 9.3fold induction by PMA in the absence of EGF was reduced to 5.6fold by including EGF in the serum-free incubation mixture. Similar differences were observed, when EGF was substituted by 10% fetal calf serum.

Where [3] appears, read: Table 2 A) transcriptional activators.

For the compound `CC1(C)C2CCC1(C)C(O)C2` (stereo not shown) [Chemical 1635], the “GCSF fold inhibition relative to solvent control” value with human G-CSF promoter is on record as 0.71 fold. Further, the “MMTV fold inhibition relative to solvent control” value in series [1] stood at 0.99 fold. In addition, the “hGH fold inhibition relative to solvent control” value in series [2] was determined as 9.09 fold.
On the same counts, the results for `CC12CCC(CC1=O)C2(C)C` (stereo not shown) [Chemical 1720] are 0.65 fold, 0.66 fold and 4.76 fold.
Take `CC(=O)[O-].Nc1ccc2nc3c(cc(N)c4ccccc43)[o+]c2c1` [Chemical 1776]: the “GCSF fold induction relative to solvent control” value with human G-CSF promoter (setting [3]) came out at 3.50 fold. Also, in series [1] (setting [3]), the “MMTV fold induction relative to solvent control” value is 1.36 fold. Besides, in series [2] (setting [3]), the “hGH fold induction relative to solvent control” value was 0.15 fold.
Consider “Interleukin-1 beta: Interleukin-1 beta, known transcriptional inducer”, for which the “G-CSF promoter induction, clone G 1002” value in the series with G-CSF promoter stood at 2.6 fold.
